According to ChEMBL document CHEMBL4392825, “New SIRT2 inhibitors: Histidine-based bleomycin spin-off” (Bioorg Med Chem, 2019):

What was measured:
[1] = biological target: T1, NAD-dependent protein deacetylase sirtuin-2 (Homo sapiens, UniProt Q8IXJ6); assay: Inhibition of recombinant SIRT2 (unknown origin) using FAM-RHKK(Ac)LM as substrate measured after 60 mins by electrophoretic mobility shift assay
T1 sequence (Q8IXJ6 whole entry): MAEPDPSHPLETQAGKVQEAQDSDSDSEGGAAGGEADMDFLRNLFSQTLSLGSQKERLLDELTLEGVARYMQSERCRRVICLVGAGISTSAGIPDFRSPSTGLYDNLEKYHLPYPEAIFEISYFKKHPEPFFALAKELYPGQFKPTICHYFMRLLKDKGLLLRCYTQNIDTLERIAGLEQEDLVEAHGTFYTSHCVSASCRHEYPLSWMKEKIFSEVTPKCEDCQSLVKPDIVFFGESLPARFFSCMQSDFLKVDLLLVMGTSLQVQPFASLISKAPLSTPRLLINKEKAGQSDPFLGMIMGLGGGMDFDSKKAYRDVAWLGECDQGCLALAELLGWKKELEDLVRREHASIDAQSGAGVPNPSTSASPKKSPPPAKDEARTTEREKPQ

[2] = biological target: T2, NAD-dependent protein deacetylase sirtuin-3, mitochondrial (Homo sapiens) (UniProt Q9NTG7); assay: Inhibition of recombinant SIRT3 (unknown origin) assessed as residual activity using VSTPVK(Ac)-MCA as substrate measured after 60 mins by fluorescence assay relative to control; set-up: concentration or dose not given beside the values
T2 sequence (whole entry): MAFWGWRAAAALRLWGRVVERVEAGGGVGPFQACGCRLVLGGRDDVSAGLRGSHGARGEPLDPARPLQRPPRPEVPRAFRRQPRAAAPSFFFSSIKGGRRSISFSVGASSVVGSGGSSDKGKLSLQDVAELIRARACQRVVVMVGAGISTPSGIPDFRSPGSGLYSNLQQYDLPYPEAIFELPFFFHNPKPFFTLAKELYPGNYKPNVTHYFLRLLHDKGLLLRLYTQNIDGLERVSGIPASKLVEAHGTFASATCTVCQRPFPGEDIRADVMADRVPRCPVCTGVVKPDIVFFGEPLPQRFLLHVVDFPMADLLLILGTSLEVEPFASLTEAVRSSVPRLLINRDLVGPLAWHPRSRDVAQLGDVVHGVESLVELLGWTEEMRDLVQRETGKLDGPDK

MT2 = assay: Cytotoxicity against human MT2 cells assessed as reduction in cell viability measured after 1 day by MTT assay; type: cell-based; conditions: MT2, 24 h
MCF7 = assay: Cytotoxicity against human MCF7 cells assessed as reduction in cell viability measured after 4 days by MTT assay; type: functional, cell-based; conditions: MCF7, 96 h
[3] = biological target: T3, NAD-dependent protein deacetylase sirtuin-1 (Homo sapiens) (UniProt Q96EB6); assay: Inhibition of recombinant SIRT1 (unknown origin) assessed as residual activity using RHKK(Ac)-MCA as substrate measured after 60 mins by fluorescence assay relative to control; set-up: concentration or dose not given beside the values
T3 sequence (whole entry): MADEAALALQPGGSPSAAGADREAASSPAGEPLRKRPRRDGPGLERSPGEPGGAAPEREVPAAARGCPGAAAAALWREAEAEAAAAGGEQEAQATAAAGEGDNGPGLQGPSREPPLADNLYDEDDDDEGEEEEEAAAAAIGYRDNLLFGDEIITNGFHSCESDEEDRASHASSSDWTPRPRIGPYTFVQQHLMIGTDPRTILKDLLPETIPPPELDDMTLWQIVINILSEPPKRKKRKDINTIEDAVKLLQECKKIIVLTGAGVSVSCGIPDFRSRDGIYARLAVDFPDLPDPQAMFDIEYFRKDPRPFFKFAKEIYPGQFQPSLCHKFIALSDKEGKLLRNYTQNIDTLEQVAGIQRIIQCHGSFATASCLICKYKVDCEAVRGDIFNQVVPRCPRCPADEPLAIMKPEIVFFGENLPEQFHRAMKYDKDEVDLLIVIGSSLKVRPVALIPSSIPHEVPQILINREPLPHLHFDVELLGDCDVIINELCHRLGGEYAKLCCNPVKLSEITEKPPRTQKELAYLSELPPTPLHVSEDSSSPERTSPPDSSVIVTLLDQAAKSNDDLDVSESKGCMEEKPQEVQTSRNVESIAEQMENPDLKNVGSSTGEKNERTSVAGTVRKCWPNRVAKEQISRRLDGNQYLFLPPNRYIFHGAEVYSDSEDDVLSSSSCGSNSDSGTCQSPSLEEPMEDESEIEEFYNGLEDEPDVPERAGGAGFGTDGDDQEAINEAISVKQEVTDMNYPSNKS

K562 = assay: Cytotoxicity against human K562 cells assessed as reduction in cell viability measured after 1 day by MTT assay; type: functional, cell-based; conditions: K562, 24 h
[4] = biological target: T1, NAD-dependent protein deacetylase sirtuin-2; assay: Inhibition of recombinant SIRT2 (unknown origin) using RHKK(Ac)-MCA as substrate measured after 60 mins by fluorescence assay

Row | Structure (SMILES) | IC50 [1] [µM] | Activity [2] [%] | Activity [3] [%] | IC50 [4] [µM] | IC50 (MT2) [µM] | IC50 (MCF7) [µM] | IC50 (K562) [µM]
1 | COC(=O)[C@H](Cc1cn(C(c2ccccc2)(c2ccccc2)c2ccccc2)cn1)NC(=O)c1ccccn1 | 20.4 | – | – | – | – | – | –
2 | COC(=O)[C@@H](N)Cc1cn(C(c2ccccc2)(c2ccccc2)c2ccccc2)cn1 | 43 | 76.2 | 95.9 | – | 3.13 | 49.1 | 7.2
3 | COC(=O)[C@H](Cc1cn(C(c2ccccc2)(c2ccccc2)c2ccccc2)cn1)NCc1ccc(N(C)C)cc1 | 11.8 | 81.7 | 105 | – | 6.81 | 11.9 | 10.4
4 | COC(=O)[C@H](Cc1cn(C(c2ccccc2)(c2ccccc2)c2ccccc2)cn1)N(Cc1ccccc1)Cc1ccccc1 | > 100 | 90.7 | 116 | – | – | – | –
5 | COC(=O)[C@H](Cc1cn(C(c2ccccc2)(c2ccccc2)c2ccccc2)cn1)NCc1ccccn1 | 21.8 | 67.7 | 96.5 | – | 1.75 | 8.96 | 6.36
6 | Cc1cc(C)nc(SCC(=O)Nc2ncc(Cc3cccc4ccccc34)s2)n1 | – | – | – | – | > 100 | 13.7 | > 100
7 | COC(=O)[C@H](Cc1c[nH]cn1)NCc1cc(N(C)C)cc(CN[C@@H](Cc2cn(C(c3ccccc3)(c3ccccc3)c3ccccc3)cn2)C(=O)OC)n1 | – | – | – | 5.5 | 8.61 | 2.29 | 6.51
8 | COC(=O)[C@H](Cc1cn(C(c2ccccc2)(c2ccccc2)c2ccccc2)cn1)NCc1ccccc1 | 16.4 | – | – | – | – | – | –
9 | COC(=O)[C@H](Cc1cn(C(c2ccccc2)(c2ccccc2)c2ccccc2)cn1)NCc1cc(N(C)C)cc(CN[C@@H](Cc2cn(C(c3ccccc3)(c3ccccc3)c3ccccc3)cn2)C(=O)OC)n1 | – | – | – | 8.8 | 8.86 | 1.72 | 7.91

The remaining molecules from weak to strong by IC50 [1], led by results:

Row | IC50 [1] [µM] | Activity [2] [%] | Activity [3] [%] | IC50 [4] [µM] | Structure (SMILES) | IC50 (MT2) [µM] | IC50 (MCF7) [µM] | IC50 (K562) [µM]
10 | 10.2 | – | – | – | COC(=O)[C@H](Cc1cn(C(c2ccccc2)(c2ccccc2)c2ccccc2)cn1)NCc1ccc(Br)cn1 | – | – | –
11 | 7.5 | – | – | – | COC(=O)[C@H](Cc1cn(C(c2ccccc2)(c2ccccc2)c2ccccc2)cn1)NCc1cccc(Br)n1 | – | – | –
12 | 6.7 | – | – | – | COC(=O)[C@H](Cc1cn(C(c2ccccc2)(c2ccccc2)c2ccccc2)cn1)NCc1ccncc1Br | – | – | –
13 | 5.9 | 71.9 | 102 | – | COC(=O)[C@H](Cc1cn(C(c2ccccc2)(c2ccccc2)c2ccccc2)cn1)NCc1ccc(Br)nc1 | 1.37 | 9.87 | 5.35
14 | 5.6 | – | – | – | COC(=O)[C@H](Cc1cn(C(c2ccccc2)(c2ccccc2)c2ccccc2)cn1)NCc1cccc(N(C)C)c1 | – | – | –
15 | 3.3 | – | – | – | COC(=O)[C@H](Cc1cn(C(c2ccccc2)(c2ccccc2)c2ccccc2)cn1)NCc1cnc2ccccc2c1 | – | – | –
16 | 2.5 | – | – | – | COC(=O)[C@H](Cc1cn(C(c2ccccc2)(c2ccccc2)c2ccccc2)cn1)NCc1ccc2ccccc2n1 | – | – | –
17 | 1.7 | – | – | 1.7 | COC(=O)[C@H](Cc1cn(C(c2ccccc2)(c2ccccc2)c2ccccc2)cn1)NCc1cc(N(C)C)ccn1 | 3.53 | 0.77 | 7.53
18 | 1.3 | – | – | – | CCN(CC)c1ccnc(CN[C@@H](Cc2cn(C(c3ccccc3)(c3ccccc3)c3ccccc3)cn2)C(=O)OC)c1 | 4.36 | 0.71 | 6.27
